Results from patent publication US11634447B2 (priority 2012, dated 2023).
“And” between values parts separate entries of the source, which are not always exact repeats. Equal values may be shown once.

Tests used:
FimH-CRD [1] = target: T1, FimH-CRD (Escherichia coli, UniProt P08191); experiment: Competitive binding assay by fluorescence polarization, assay 2 (compounds prepared by a robotics system, plates frozen and thawed); set-up: species or system E. coli
T1 construct: The first 177 amino acids of the FimH protein are expressed as a fusion protein; thrombin tag (printed as 'fusion protein with thrombin') (cleaved yes); made in house; host or cells: bacteria (pET21b plasmid)
Protocol: (§1) The first 177 amino acids of the FimH protein are expressed as a fusion protein with thrombin in a pET21b plasmid in bacteria. This FimH protein sequence contains the carbohydrate recognition domain (CRD) and shall be termed FimH-CRD. Following bacterial expression of the protein, the FimH-CRD protein is purified to homogeneity and the thrombin tag removed by protease cleavage. A competitive binding assay by fluorescence polarization is performed using 5 nM of the Alexa 647 mannoside probe and 60 nM of the FimH-CRD. The samples are assayed in a low volume 384 well microtiter plate in a final volume of 20 μl. The final assay buffer conditions are the following, 50 mM Tris-Cl, ph 7.0, 100 mM NaCl, 1 mM EDTA, 5 mM β-mercaptoethanol, 0.05% BSA and 2.5% DMSO. Two assays are performed for FimH, termed assay 1 or assay 2. The assay conditions are the same for both assays except the following: assay 1 has compounds prepared by manual dilution in a serial dilution factor with 12-point dose response while assay 2 has compounds prepared by a robotics system also through a serial dilution factor (12 point dose response) and initially prepared in duplicate in 384 well-Corning polypropylene round bottom plates. The assay 2 plates have compound which is then frozen and must be thawed prior to use. Initially the Alexa 647 probe and the FimH-CRD are added to the assay buffer and then 0.5 μl of test compound (assay 1 or 2) between 0.4 nM to 75 μM final concentration are added (12 point titration with 3-fold serial dilution). Control wells for the Alexa 647 probe are prepared with the same conditions except for the addition of the FimH-CRD protein. Plates are then incubated for 5 hrs at room temperature in the dark and under humid conditions to prevent drying. Plates are read using the SpectraMax Paradigm multi-mode plate reader and the appropriate fluorescent polarization detection cartridge (Alexa-647).
(§2) Alexa 647 mannoside probe is prepared using the similar procedure reported for FAM mannoside (Han, Z. et. al., 2010, J. Med. Chem., 53, 4779) and is described in the scheme below.
(§3) To a blue colored stirred solution of (2S,3S,4S,5S,6R)-2-(4-aminobutoxy)-6-(hydroxymethyl)tetrahydropyran-3,4,5-triol (2.21 mg, 0.009 mmol) and the (2E)-2-[(2E,4E)-5-[3,3-dimethyl-5-sulfonato-1-(3-sulfonatopropyl)indol-1-ium-2-yl]penta-2,4-dienylidene]-3-[6-(2,5-dioxopyrrolidin-1-yl)oxy-6-oxo-hexyl]-3-methyl-1-(3-sulfonatopropyl)indoline-5-sulfonate (Potassium Ion (3)) (4.9 mg, 0.0044 mmol) in DMF (44 μL) is added Et3N (5.4 mg, 7.0 μL, 0.053 mmol) at RT. The solution is stirred at room temperature over night, concentrated, dissolved in water and purified on 12 g C-18 silica gel cartridge on Isolera system using acetonitrile in water (0 to 40%, 10 CV) and followed by lyophilization to afford Alexa 647 mannoside probe (3.3 mg, 34%) as deep blue solid.
(§4) The Kd values of the compounds are determined from dose response curves using twelve concentrations per compound in duplicate. Curves are fitted to data points using Fluorescence Polarization competitive displacement analysis, and Kds are interpolated from the resulting curves using GraphPad Prism software, version […] (GraphPad software Inc., San Diego, Calif., USA).

FimH-CRD [2] = target: T1, FimH-CRD; experiment: Competitive binding assay by fluorescence polarization, assay 1 (compounds prepared by manual dilution); set-up: species or system E. coli
Protocol: as §1, §2, §3, §4

[3] = tested on: bacterial strain LF82 binding to the glycoprotein BSA-(Mannose)3; experiment: Bacterial Binding Assay (BBA); format: cell-based, Escherichia coli; settings: read-out: Bacterial Binding Assay IC50, LF82/Luciferase strain binding to BSA-(Man)3 coated plates, luminescence
Summary of the method: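 Inhibition of LF82/luciferase E. coli adhesion is read as luminescence after washing off unbound cells. Compound and bacteria (10^7 per well) are co-incubated 40-75 min at room temperature on wells coated with 0.5-2 μg/mL BSA-(Man)3, with BSA-only wells as background; IC50 values derived.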

[4] = Assay 2 Kd, 5 nM Alexa 647 mannoside probe, 60 nM FimH-CRD, replicate values in one cell
[5] = Assay 1 Kd, 5 nM Alexa 647 mannoside probe, 60 nM FimH-CRD, replicate values in one cell
[6] = read-out: Assay 2 Kd, 5 nM Alexa 647 mannoside probe, 60 nM FimH-CRD, replicate values in one cell

T1 sequence (P08191 22-177): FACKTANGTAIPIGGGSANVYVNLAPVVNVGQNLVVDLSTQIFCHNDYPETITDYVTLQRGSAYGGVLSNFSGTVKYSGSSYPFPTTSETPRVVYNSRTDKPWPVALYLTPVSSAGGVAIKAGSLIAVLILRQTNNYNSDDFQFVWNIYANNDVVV

Structure (SMILES)	Kd (FimH-CRD [1]; [4])	Kd (FimH-CRD [2]; [5])	IC50 [3]	Kd (FimH-CRD [2]; read-out: Assay 1 Kd, 5 nM Alexa 647 mannoside probe, 60 nM FimH-CRD, replicate values in one cell)	Kd (FimH-CRD [1]; [6])
OC[C@H]1O[C@H](c2ccc([C@H]3O[C@H](CO)[C@@H](O)[C@H](O)[C@@H]3O)cc2)[C@@H](O)[C@@H](O)[C@@H]1O [Compound 1, (2R,3S,4R,5S,6R)-2-(Hydroxymethyl)-6-[4-[(2R,3S,4R,5S,6R)-3,4,5-trihydroxy-6 (hydroxymethyl)tetrahydropyran-2-yl]phenyl]tetrahydropyran-3,4,5-triol]	13 nM and 8 nM	< 5 nM (2×) and 8 nM	5270 nM		
OC[C@H]1O[C@H](c2ccc(-c3cccc([C@H]4O[C@H](CO)[C@@H](O)[C@H](O)[C@@H]4O)c3)cc2)[C@@H](O)[C@@H](O)[C@@H]1O [Compound 5, (2R,2,3S,3,4R,4,5S,5,6R,6)-6,6([1,1Biphenyl]-3,4diyl)bis(2-(hydroxymethyl)tetrahydro-2H-pyran-3,4,5-triol)]	49 nM and < 5 nM (2×)	< 5 nM	580 nM	< 5 nM	
O=C(NCCCNC(=O)c1cccc([C@H]2O[C@H](CO)[C@@H](O)[C@H](O)[C@@H]2O)c1)c1cccc([C@H]2O[C@H](CO)[C@@H](O)[C@H](O)[C@@H]2O)c1 [Compound 9, (R,R,S,R,S)-N,N′-(Propane-1,3-diyl)bis(3-((2R,3S,4R,5S,6R)-3,4,5-trihydroxy-6-(hydroxymethyl)tetrahydro-2H-pyran-2-yl)benzamide)]	24 nM	7 nM and 12 nM			
O=C(NCCCCCNC(=O)c1cccc([C@H]2O[C@H](CO)[C@@H](O)[C@H](O)[C@@H]2O)c1)c1cccc([C@H]2O[C@H](CO)[C@@H](O)[C@H](O)[C@@H]2O)c1 [Compound 11, (R,R,S,R,S)-N,N′-(Pentane-1,5-diyl)bis(3-((2R,3S,4R,5S,6R)-3,4,5-trihydroxy-6-(hydroxymethyl)tetrahydro-2H-pyran-2-yl)benzamide)]	16 nM	< 5 nM and 11 nM			
OC[C@H]1O[C@H](c2cn([C@H]3O[C@H](CO)[C@@H](O)[C@H](O)[C@@H]3O)nn2)[C@@H](O)[C@@H](O)[C@@H]1O [Compound 42, ((2R,3S,4R,5S,6R)-2-(Hydroxymethyl)-6-[1-[(2S,3S,4S,5S,6R)-3,4,5-trihydroxy-6-(hydroxymethyl)tetrahydropyran-2-yl]triazol-4-yl]tetrahydropyran-3,4,5-triol)]	140 nM and 145 nM	114 nM and 377 nM			
O=C(Nc1cccc([C@H]2O[C@H](CO)[C@@H](O)[C@H](O)[C@@H]2O)c1)Nc1cccc([C@H]2O[C@H](CO)[C@@H](O)[C@H](O)[C@@H]2O)c1 [Compound 51, (1,3-Bis(3-((2R,3S,4R,5S,6R)-3,4,5-trihydroxy-6-(hydroxymethyl)tetrahydro-2H-pyran-2-yl)phenyl)urea)]	15 nM and < 5 nM		830 nM		
OC[C@H]1O[C@H](c2cccc(CCCCc3cccc([C@H]4O[C@H](CO)[C@@H](O)[C@H](O)[C@@H]4O)c3)c2)[C@@H](O)[C@@H](O)[C@@H]1O [Compound 52, ((2R,3S,4R,5S,6R)-2-(Hydroxymethyl)-6-[3-[4-[3-[(2R,3S,4R,5S,6R)-3,4,5-trihydroxy-6-(hydroxymethyl)tetrahydropyran-2-yl]phenyl]butyl]phenyl]tetrahydropyran-3,4,5-triol)]	< 5 nM		660 nM		< 5 nM
OC[C@H]1O[C@H](C#Cc2ccc(C#C[C@H]3O[C@H](CO)[C@@H](O)[C@H](O)[C@@H]3O)cc2)[C@@H](O)[C@@H](O)[C@@H]1O [Compound 53, (2R,3S,4R,5S,6R)-2-(Hydroxymethyl)-6-[2-[4-[2-[(2R,3S,4R,5S,6R)-3,4,5-trihydroxy-6-(hydroxymethyl)tetrahydropyran-2-yl]ethynyl]phenyl]ethynyl]tetrahydropyran-3,4,5-triol]	< 5 nM		55 nM		< 5 nM
OC[C@H]1O[C@H](C#CC#C[C@H]2O[C@H](CO)[C@@H](O)[C@H](O)[C@@H]2O)[C@@H](O)[C@@H](O)[C@@H]1O [Compound 54, (2R,3S,4R,5S,6R)-2-(hydroxymethyl)-6-[4-[(2R,3S,4R,5S,6R)-3,4,5-trihydroxy-6-(hydroxymethyl)tetrahydropyran-2-yl]buta-1,3-diynyl]tetrahydropyran-3,4,5-triol]	16 nM and 30 nM		1150 nM		
OC[C@H]1O[C@H](C/C=C/c2ccc(C#C[C@H]3O[C@H](CO)[C@@H](O)[C@H](O)[C@@H]3O)cc2)[C@@H](O)[C@@H](O)[C@@H]1O [Compound 55, (2R,3S,4R,5S,6R)-2-(Hydroxymethyl)-6-[(E)-3-[4-[2-[(2R,3S,4R,5S,6R)-3,4,5-trihydroxy-6-(hydroxymethyl)tetrahydropyran-2-yl]ethynyl]phenyl]allyl]tetrahydropyran-3,4,5-triol]	< 5 nM and 5 nM		210 nM		
OC[C@H]1O[C@H](c2ccc3cc(C#C[C@H]4O[C@H](CO)[C@@H](O)[C@H](O)[C@@H]4O)ccc3c2)[C@@H](O)[C@@H](O)[C@@H]1O [Compound 56, (2R,3S,4R,5S,6R)-2-(Hydroxymethyl)-6-[2-[6-[(2R,3S,4R,5S,6R)-3,4,5-trihydroxy-6-(hydroxymethyl)tetrahydropyran-2-yl]-2-naphthyl]ethynyl]tetrahydropyran-3,4,5-triol]	< 5 nM		20 nM		< 5 nM
OC[C@H]1O[C@H](C#Cc2cccc(C#C[C@H]3O[C@H](CO)[C@@H](O)[C@H](O)[C@@H]3O)c2)[C@@H](O)[C@@H](O)[C@@H]1O [Compound 57, (2R,3S,4R,5S,6R)-2-(Hydroxymethyl)-6-[2-[3-[2-[(2R,3S,4R,5S,6R)-3,4,5-trihydroxy-6-(hydroxymethyl)tetrahydropyran-2-yl]ethynyl]phenyl]ethynyl]tetrahydropyran-3,4,5-triol]	< 5 nM		27 nM		< 5 nM
OC[C@H]1O[C@H](C#Cc2ccc3ccc(C#C[C@H]4O[C@H](CO)[C@@H](O)[C@H](O)[C@@H]4O)cc3c2)[C@@H](O)[C@@H](O)[C@@H]1O [Compound 58, (2R,3S,4R,5S,6R)-2-(Hydroxymethyl)-6-[2-[7-[2-[(2R,3S,4R,5S,6R)-3,4,5-trihydroxy-6-(hydroxymethyl)tetrahydropyran-2-yl]ethynyl]-2-naphthyl]ethynyl]tetrahydropyran-3,4,5-triol]	< 5 nM		17 nM		< 5 nM
OC[C@H]1O[C@H](C#Cc2ccc3cc(C#C[C@H]4O[C@H](CO)[C@@H](O)[C@H](O)[C@@H]4O)ccc3c2)[C@@H](O)[C@@H](O)[C@@H]1O [Compound 59, (2R,3S,4R,5S,6R)-2-(Hydroxymethyl)-6-[2-[6-[2-[(2R,3S,4R,5S,6R)-3,4,5-trihydroxy-6-(hydroxymethyl)tetrahydropyran-2-yl]ethynyl]-2-naphthyl]ethynyl]tetrahydropyran-3,4,5-triol]	< 5 nM		8.2 nM		< 5 nM
OC[C@H]1O[C@H](C#Cc2cccc3c(C#C[C@H]4O[C@H](CO)[C@@H](O)[C@H](O)[C@@H]4O)cccc23)[C@@H](O)[C@@H](O)[C@@H]1O [Compound 60, (2R,3S,4R,5S,6R)-2-(Hydroxymethyl)-6-[2-[5-[2-[(2R,3S,4R,5S,6R)-3,4,5-trihydroxy-6-(hydroxymethyl)tetrahydropyran-2-yl]ethynyl]-1-naphthyl]ethynyl]tetrahydropyran-3,4,5-triol]	< 5 nM		13 nM		< 5 nM
